Results as given in patent publication US11753407B2, “Compounds for treating spinal muscular atrophy” (PTC Therapeutics, Inc., priority 2012, dated 2023).

What was measured:
[1] = test system: SMN2 minigene mRNA (SMN2-A minigene) in HEK293H cells; test: SMN2 minigene mRNA splicing RT-qPCR assay in cultured cells; assay type: cell-based, human; conditions: Homo sapiens, HEK293-H; concentration increasing full length SMN2 mRNA 1.5-fold relative to vehicle-treated cells; HEK293H cells with SMN2-A minigene, 24 hours, 7-point concentration data; read-out: EC1.5x for production of full length SMN2 mRNA
Outline: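 EC1.5× values derive from a 24 h treatment of SMN2-A minigene HEK293H cells and GAPDH-normalized RT-qPCR of exon 7-included minigene mRNA relative to vehicle-treated cells.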

[2] = test system: Smn protein in SMA patient fibroblast cells (GM03813); test: Smn protein assay in cultured cells (SMN HTRF); assay type: cell-based, human; conditions: SMA patient fibroblast cells, 48 hours; for maximum fold (Fold) increase of Smn protein: 7-point concentration data, fold relative to vehicle control; for EC1.5x for Smn protein expression: 7-point concentration curve, SMN HTRF, concentration producing 1.5 times Smn protein vs DMSO vehicle control
Outline: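 Cells were cultured 72 h, seeded at 5,000/well and dosed with seven concentrations (3.16-fold apart) for 48 h. HTRF on lysates, read at 665 and 620 nm, gave blank-corrected ΔF values relative to DMSO. Potency is reported as EC1.5×, efficacy as maximal fold Smn increase.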

SMILES	melting point	EC (1.5-fold increase) [1]	maximum fold (Fold) increase of Smn protein [2]	EC1.5x for Smn protein expression [2]
CCN1CCN(c2ccc3nc(-c4ccc5nc(C)oc5c4)cc(=O)n3c2)CC1 [Compound 202, 7-(4-ethylpiperazin-1-yl)-2-(2-methyl-1,3-benzoxazol-6-yl)-4H-pyrido[1,2-a]pyrimidin-4-one]	212 to 216 °C	0.3 to 1 µM	** (a fold increase between >1.2 and ≤1.35 is indicated by two stars (**))	
COc1ccc(-c2cc(=O)n3cc(C4=CCN(C)CC4)ccc3n2)cc1F [Compound 204, 2-(3-fluoro-4-methoxyphenyl)-7-(1-methyl-1,2,3,6-tetrahydropyridin-4-yl)-4H-pyrido[1,2-a]pyrimidin-4-one]	129 to 132 °C	< 0.1 µM	**** (a fold increase between >1.5 and ≤1.65 is indicated by four stars (****))	**** (an EC1.5x≤0.3 μM is indicated by four stars (****))
COc1ccc(-c2cc(=O)n3cc(N4CC[C@H](N(C)C)C4)ccc3n2)cc1F [Compound 205, 7-[(3S)-3-(dimethylamino)pyrrolidin-1-yl]-2-(3-fluoro-4-methoxyphenyl)-4H-pyrido[1,2-a]pyrimidin-4-one]	187 to 192 °C	0.3 to 1 µM	** (a fold increase between >1.2 and ≤1.35 is indicated by two stars (**))	
COc1ccc(-c2cc(=O)n3cc(N4CCC(N)CC4)ccc3n2)cc1F [Compound 207, 7-(4-aminopiperidin-1-yl)-2-(3-fluoro-4-methoxyphenyl)-4H-pyrido[1,2-a]pyrimidin-4-one]	173 to 179 °C	< 0.1 µM	*** (a fold increase between >1.35 and ≤1.5 is indicated by three stars (***))	
CNC1CCN(c2ccc3nc(-c4ccc(OC)c(F)c4)cc(=O)n3c2)CC1 [Compound 208, 2-(3-fluoro-4-methoxyphenyl)-7-[4-(methylamino)piperidin-1-yl]-4H-pyrido[1,2-a]pyrimidin-4-one]	167 to 171 °C	< 0.1 µM	*** (a fold increase between >1.35 and ≤1.5 is indicated by three stars (***))	*** (an EC1.5× between >0.3 μM and ≤1 μM is indicated by three stars (***))
COc1ccc(-c2cc(=O)n3cc(N4C[C@H]5CN(C)C[C@H]5C4)ccc3n2)cc1F [Compound 213, 2-(3-fluoro-4-methoxyphenyl)-7-[(3aR,6aS)-5-methylhexahydropyrrolo[3,4-c]pyrrol-2(1H)-yl]-4H-pyrido[1,2-a]pyrimidin-4-one]	204 to 210 °C	0.1 to 0.3 µM	*** (a fold increase between >1.35 and ≤1.5 is indicated by three stars (***))	**** (an EC1.5x≤0.3 μM is indicated by four stars (****))
COc1cc(-c2cc(=O)n3cc(N4CCNCC4)ccc3n2)ccc1F [Compound 216, 2-(4-fluoro-3-methoxyphenyl)-7-(piperazin-1-yl)-4H-pyrido[1,2-a]pyrimidin-4-one]	170 to 172 °C	0.3 to 1 µM	*** (a fold increase between >1.35 and ≤1.5 is indicated by three stars (***))	
COc1cc(-c2cc(=O)n3cc(N4CCNCC4)ccc3n2)cc(F)c1F [Compound 218, 2-(3,4-difluoro-5-methoxyphenyl)-7-(piperazin-1-yl)-4H-pyrido[1,2-a]pyrimidin-4-one]	155 to 160 °C	0.1 to 0.3 µM	*** (a fold increase between >1.35 and ≤1.5 is indicated by three stars (***))	** (an EC1.5× between >1 μM and ≤3 μM is indicated by two stars (**))
Cc1nc2ccc(-c3cc(=O)n4cc(N5CCNCC5)ccc4n3)cc2s1 [Compound 219, 2-(2-methyl-1,3-benzothiazol-6-yl)-7-(piperazin-1-yl)-4H-pyrido[1,2-a]pyrimidin-4-one]	218 to 220 °C	< 0.1 µM	**** (a fold increase between >1.5 and ≤1.65 is indicated by four stars (****))	**** (an EC1.5x≤0.3 μM is indicated by four stars (****))
CNCC1CCN(c2ccc3nc(-c4ccc(OC)c(F)c4)cc(=O)n3c2)CC1 [Compound 223, 2-(3-fluoro-4-methoxyphenyl)-7-{4-[(methylamino)methyl]piperidin-1-yl}-4H-pyrido[1,2-a]pyrimidin-4-one]	163 to 170 °C	0.3 to 1 µM	*** (a fold increase between >1.35 and ≤1.5 is indicated by three stars (***))	

Continued, in another order:

melting point	SMILES	EC (1.5-fold increase) [1]	maximum fold (Fold) increase of Smn protein [2]	EC1.5x for Smn protein expression [2]
223 to 228 °C	COc1ccc(-c2cc(=O)n3cc(N4C[C@@H](O)[C@H](N(C)C)C4)ccc3n2)cc1F [Compound 206, 7-[(3R,4R)-3-(dimethylamino)-4-hydroxypyrrolidin-1-yl]-2-(3-fluoro-4-methoxyphenyl)-4H-pyrido[1,2-a]pyrimidin-4-one]	1 to 3 µM	** (a fold increase between >1.2 and ≤1.35 is indicated by two stars (**))	
255 to 259 °C	Cc1cn2cc(-c3cc(=O)n4cc(N5C[C@@H](C)N[C@@H](C)C5)ccc4n3)cc(F)c2n1 [Compound 210, 7-[(3R,5S)-3,5-dimethylpiperazin-1-yl]-2-(8-fluoro-2-methylimidazo[1,2-a]pyridin-6-yl)-4H-pyrido[1,2-a]pyrimidin-4-one]	< 0.1 µM	**** (a fold increase between >1.5 and ≤1.65 is indicated by four stars (****))	**** (an EC1.5x≤0.3 μM is indicated by four stars (****))
262 to 266 °C	Cc1cn2cc(-c3cc(=O)n4cc(N5CCCN(C)CC5)ccc4n3)cc(F)c2n1 [Compound 211, 2-(8-fluoro-2-methylimidazo[1,2-a]pyridin-6-yl)-7-(4-methyl-1,4-diazepan-1-yl)-4H-pyrido[1,2-a]pyrimidin-4-one]	< 0.1 µM	**** (a fold increase between >1.5 and ≤1.65 is indicated by four stars (****))	**** (an EC1.5x≤0.3 μM is indicated by four stars (****))
195 to 200 °C	COc1ccc(-c2cc(=O)n3cc(N4C[C@H]5CNC[C@H]5C4)ccc3n2)cc1F [Compound 212, 2-(3-fluoro-4-methoxyphenyl)-7-[(3aR,6aS)-hexahydropyrrolo[3,4-c]pyrrol-2(1H)-yl]-4H-pyrido[1,2-a]pyrimidin-4-one]	0.1 to 0.3 µM	**** (a fold increase between >1.5 and ≤1.65 is indicated by four stars (****))	**** (an EC1.5x≤0.3 μM is indicated by four stars (****))
145 to 148 °C	COc1ccc(-c2cc(=O)n3cc(C4CCN(CCO)CC4)ccc3n2)cc1OC [Compound 214, 2-(3,4-dimethoxyphenyl)-7-[1-(2-hydroxyethyl)piperidin-4-yl]-4H-pyrido[1,2-a]pyrimidin-4-one]	0.3 to 1 µM	**** (a fold increase between >1.5 and ≤1.65 is indicated by four stars (****))	** (an EC1.5× between >1 μM and ≤3 μM is indicated by two stars (**))
130 to 135 °C	COc1cc(-c2cc(=O)n3cc(N4CCN[C@@H](C)C4)ccc3n2)ccc1F [Compound 215, 2-(4-fluoro-3-methoxyphenyl)-7-[(3S)-3-methylpiperazin-1-yl]-4H-pyrido[1,2-a]pyrimidin-4-one]	0.3 to 1 µM	*** (a fold increase between >1.35 and ≤1.5 is indicated by three stars (***))	
160 to 164 °C	COc1cc(-c2cc(=O)n3cc(N4CCN[C@@H](C)C4)ccc3n2)cc(F)c1F [Compound 217, 2-(3,4-difluoro-5-methoxyphenyl)-7-[(3S)-3-methylpiperazin-1-yl]-4H-pyrido[1,2-a]pyrimidin-4-one]	0.3 to 1 µM	*** (a fold increase between >1.35 and ≤1.5 is indicated by three stars (***))	
214 to 216 °C	Cc1nc2ccc(-c3cc(=O)n4cc(N5CCN[C@@H](C)C5)ccc4n3)cc2s1 [Compound 221, 2-(2-methyl-1,3-benzothiazol-6-yl)-7-[(3S)-3-methylpiperazin-1-yl]-4H-pyrido[1,2-a]pyrimidin-4-one]	< 0.1 µM	***** (a fold increase >1.65 is indicated by five stars (*****))	**** (an EC1.5x≤0.3 μM is indicated by four stars (****))
208 to 216 °C	CN[C@H]1CCN(c2ccc3nc(-c4ccc(OC)c(F)c4)cc(=O)n3c2)C1 [Compound 222, 2-(3-fluoro-4-methoxyphenyl)-7-[(3S)-3-(methylamino)pyrrolidin-1-yl]-4H-pyrido[1,2-a]pyrimidin-4-one]	0.3 to 1 µM	*** (a fold increase between >1.35 and ≤1.5 is indicated by three stars (***))	
